According to US20150141375A1 (priority 2009, published 2015):
Read-outs that look alike come from different tables or passages of the source.

Assays:
Adenovirus = settings: literature values; cited from earlier work
HSV-2, strain MS = test: Mortality of BALB/c mice infected intranasally with HSV-2, strain MS; format: in vivo
Method: Animals: BALB/c, female mice, 3-4 weeks of age.
Treatments were administered to mice for 7 consecutive days beginning 72 hr post viral inoculation by oral gavage using a 0.2 ml volume. CMX001 was administered once daily and ACV was given twice daily at approximately 12 hr intervals.
Mortality rates analyzed by Fisher's exact test; Mean day of death (MDD) by Mann-Whitney U rank sum.

HSV-1 = test: microbe, parasite or virus in culture; format: cell-based
HSV-2 = test: In vitro efficacy against HSV-2 strains in HFF (CPE, plaque reduction); format: cell-based
From the text: In vitro screening by CPE assay in human foreskin fibroblast (HFF) cells with confirmation using plaque reduction assays in HFF.

SVG cells = test: SVG cell viability / cell number (MTS, alamar blue, hematoxylin); format: cell-based, human; settings: Ara-C 5 μg/ml
Method: (§1) Quantification of cell viability using the MTS [3-(4,5-dimethylthiazol-2-yl)-5-(3-carboxymethoxyphenyl)-2-(4-sulfophenyl)-2H-tetrazolium] assay is based on bioactivity of mitochondrial dehydrogenase in living cells, which converts colorless tetrazolium salt to a colored formazan. MTS assays were performed according to manufacturer's instructions (Promega, Madison Wis.). Briefly, culture medium was removed from cells and 50 μL of PBS was added into each well of a 96 well plate. Ten μL of MTS reagent were added to wells of cells, and to a well without cells to determine background. Mixtures were incubated at 37° C. for 2 hours and the absorbance was measured at 490 nm. Trypan blue staining was performed on identical cultures to correlate MTS values with cell viability. The final values indicated are the result from 3 replicates. The value for the non-treated control was set to 100% and all other values are represented as a percentage of the control. Alamar blue (AB) assay.
(§2) Quantification of cell viability using the alamar blue (AB) assay was performed according to the manufacturer's instructions (Invitrogen, Gaithersburg, Md.). Briefly, 10 μL of AB reagent was added to each well of a 96 well dish containing cells or without cells to determine background. Mixtures were incubated at 37° C. for 6 hours and the absorbance measured at 570 nm using 600 nm as a reference wavelength. The value for the non-treated control was set to 100% and all other values are represented as a percentage of the control.
(§3) Because cell density in cultures processed for in situ DNA hybridization could not be measured by MTS or AB assays, cell density was approximated in cell cultures processed by quantifying hematoxylin staining intensity. Coverslips containing cells were prepared for in situ DNA hybridization and co-stained with hematoxylin. Subsequently, each coverslip was scanned and the hematoxylin intensities quantified using ImageJ. To determine the total cell number per coverslip, images were acquired at 10 random positions at 100× magnification. Cells were counted throughout each image and the average cell number per slide was generated by averaging counts from the 10 images for each experimental group. Exactly 900 images at 100× magnification cover the surface of an 18 mm×18 mm coverslip.

[1] = as above; format: cell-based, human; settings: human, SVG cells; Ara-C 20 μg/ml; read-out: decrease of cell viability (MTS)
Method: as §1, §2, §3

Mad-4 JCV = test: JCV (Mad-4) initial infection of SVG cells (in situ DNA hybridization, qPCR); settings: for decrease in percentage of cells containing JCV DNA: day 7
[2] = Safety and pharmacokinetics of CMX001 in healthy volunteers; format: in vivo, human; settings: blood, Human, analyte = label
Method: An initial study was conducted to evaluate the safety and pharmacokinetics of CMX001 in healthy volunteers. The study consisted of a single dose arm (SD) and a multiple dose arm (MD). In the single dose arm 7 cohorts of 6 subjects were treated (4 subjects received active drug and 2 placebo). Enrollment was staggered as 2 subjects (one active, one placebo) followed by 4 subjects (Groups A and B). The estimated single doses for the two highest doses treated for a […] subject were 40 mg (0.6 mg/kg cohort 6) and 70 mg (1 mg/kg cohort 7). In the multiple dose arm, cohort 6MD received 0.1 mg/kg on Day 0, 6 and 12; Cohort 7MD received 0.2 mg/kg on Day 0, 6 and 12. Levels of cidofovir, CMX001 and CMX064 (major metabolite) were measured in blood and urine of subjects during the course of the study. Gastrointestinal (GI) monitoring of the subjects included (a) monitoring for clinical signs of GI adverse events, (b) monitoring for clinical symptoms using a visual Analog Scale, (c) monitoring for appetite loss/anorexia, nausea, vomiting, diarrhea, constipation and intestinal gas/bloating, (d) laboratory tests for fecal occult blood; serum electrolytes, urine specific gravity, BUN/creatinine ratio; serum albumin, and lipids, and (e) diagnostic studies (the Wireless capsule endoscopy (PillCam®, Given Imaging)).

HCMV (AD169) = test: HCMV real time array of viral transcripts; format: cell-based; settings: CDV 50 μM, GCV 15 μM, CMX001 0.5 μM; ANOVA P<0.05
HCMV = HCMV viral DNA accumulation in HFF cells, real time PCR, 7 days; format: cell-based; settings: GCV 10 μM
BK Virus = test: BK virus replication in RPTECs, viral DNA by qPCR after 5 days; format: cell-based; settings: Betapolyomavirus hominis, RPTEC
Method: To test the ability of CMX001 to inhibit replication of BK virus, stocks of BK virus were prepared in HFF cells and dilutions of the virus stocks were used to infect primary human renal tubular epithelial cells (RPTECs). Drug dilutions were then added to the wells containing the infected cells and the plates were incubated for 5 days. Total DNA was prepared from the plates and viral DNA was quantified by qPCR.

human PBMCs = test: Intracellular CDV-PP in human PBMCs; format: in vitro ADME
Method: CMX001 increases cellular exposure to the active antiviral agent, cidofovir-diphosphate (CDV-PP). […] CDV-PP in PBMCs incubated for 48 hours with CMX001 or cidofovir.

[3] = JC polyomavirus, read-out: reduction of JCV DNA containing cells, normalized to cell viability

In the case of `Nc1nc2c(ncn2COCCO)c(=O)[nH]1` [Acyclovir, acyclovir], the IC50 (Adenovirus) is listed as > 100 µM, the MDD (HSV-2, strain MS; Acyclovir 3 mg/kg) is listed as 9.0 ± 1.6 and the “Mortality Number” value (HSV-2, strain MS; Acyclovir 3 mg/kg) is listed as 15/15. The “Mortality Percent” value (HSV-2, strain MS; Acyclovir 3 mg/kg) was 100%, the MDD (HSV-2, strain MS; Acyclovir 10 mg/kg) was 11.1 ± 2.4 and the “Mortality Number” value (HSV-2, strain MS; Acyclovir 10 mg/kg) was 11/15. The “Mortality Percent” value (HSV-2, strain MS; Acyclovir 10 mg/kg) was 79%, the MDD (HSV-2, strain MS; Acyclovir 30 mg/kg) was 10.7 ± 2.0 and the “Mortality Number” value (HSV-2, strain MS; Acyclovir 30 mg/kg) was 6/15. For the same compound, the “Mortality Percent” value (HSV-2, strain MS; Acyclovir 30 mg/kg) was 40%, the EC50 (HSV-1; Human alphaherpesvirus 1, ACV resistant strain B-2006) was > 100 µM and the EC50 (HSV-1; Human alphaherpesvirus 1, ACV resistant strain DM2.1) was > 100 µM. The EC50 (HSV-1; Human alphaherpesvirus 1, ACV resistant strain PAAr5) was 13.6 ± 2.7 µM, the EC50 (HSV-1; Human alphaherpesvirus 1, F (wild type), Table 9) was 1.9 ± 0.47 µM and the EC50 (HSV-1; Human alphaherpesvirus 1, SC16, ACV resistant strain SC16-S1) was > 100 µM. For the same compound, the EC50 (HSV-1; Human alphaherpesvirus 1, read-out: EC50 range, panel of wild-type and ACV-resistant isolates of HSV-1 and HSV-2) was ≥ 2 µM, the EC50 (HSV-1; Human alphaherpesvirus 1, strain F) was 0.35 ± 0.2 µM and the EC50 (HSV-1; Human alphaherpesvirus 1, strain HL-3) was 3.8 ± 0.4 µM. The EC50 (HSV-2; Human alphaherpesvirus 2, ACV resistant strain 11572) was > 100 µM, the EC50 (HSV-2; Human alphaherpesvirus 2, ACV resistant strain 11680) was 79 ± 10 µM and the EC50 (HSV-2; Human alphaherpesvirus 2, ACV resistant strain 12247) was > 100 µM. The EC50 (HSV-2; Human alphaherpesvirus 2, ACV resistant strain AG-3) was > 100 µM, the EC50 (HSV-2; Human alphaherpesvirus 2, G (wild type), Table 9) was 2.1 ± 0.99 µM and the EC50 (HSV-2; Human alphaherpesvirus 2, strain G) was 3.1 ± 3.5 µM. For the same compound, the EC50 (HSV-2; Human alphaherpesvirus 2, strain MS) was 2.2 ± 0.8 µM.

For `Nc1ccn([C@@H]2O[C@H](CO)C(O)C2O)c(=O)n1` (stereo partly drawn) [Ara-C, Cytosine β-D-arabinofuranoside], the “cytotoxicity (MTS)” value (SVG cells) was “did not cause cytotoxicity”, the cytotoxicity at 20 μg/ml [1] was 21% and the “decrease in percentage of cells containing JCV DNA” value (Mad-4 JCV; Ara-C 5 μg per mL) was 25%. For the same compound, the “decrease in percentage of cells containing JCV DNA” value (Mad-4 JCV; Ara-C 20 μg per mL) was 83%, the inhibition at 5 µg/mL (Mad-4 JCV; [3]) was 27% and the inhibition at 20 µg/mL (Mad-4 JCV; [3]) was 78%.

Work on `Nc1ccn(C[C@@H](CO)OCP(=O)(O)OCCCOCCCC(=O)O)c(=O)n1` [CMX064] yielded an AUC ([2]; 0.05 mg/kg, CMX001 0.050 mg/kg) of 39 ng·h/mL, a Cmax ([2]; 0.05 mg/kg, CMX001 0.050 mg/kg) of 4.63 ng/mL and an AUC ([2]; 0.1 mg/kg, CMX001 0.100 mg/kg) of 34 ng·h/mL. The Cmax ([2]; 0.1 mg/kg, CMX001 0.100 mg/kg) was 2.85 ng/mL, the AUC ([2]; 0.2 mg/kg, CMX001 0.200 mg/kg) was 39.7 ng·h/mL and the Cmax ([2]; 0.2 mg/kg, CMX001 0.200 mg/kg) was 4.55 ng/mL. For the same compound, the AUC ([2]; 0.4 mg/kg, CMX001 0.400 mg/kg) was 203 ng·h/mL, the Cmax ([2]; 0.4 mg/kg, CMX001 0.400 mg/kg) was 23 ng/mL and the AUC ([2]; 0.6 mg/kg, CMX001 0.600 mg/kg) was 187 ng·h/mL. The Cmax ([2]; 0.6 mg/kg, CMX001 0.600 mg/kg) was 24.9 ng/mL, the AUC ([2]; CMX001 0.025 mg/kg) was 11.8 ng·h/mL and the Cmax ([2]; CMX001 0.025 mg/kg) was 1.69 ng/mL.

For `Nc1nc(O)c2ncn(COC(CO)CO)c2n1` [ganciclovir, reference compound], the IC50 (Adenovirus) is listed as 4.5 to 33 µM, the “levels of viral transcripts” value (HCMV (AD169)) is listed as “Significant reductions in levels of most viral transcripts” and the “fold reduction of accumulation of viral DNA” value (HCMV) is listed as “less than 10 fold”. For the same compound, the EC50 (BK Virus; Virus Dilution 1:10) was 89 µM, the EC50 (BK Virus; Virus Dilution 1:50) was > 100 µM and the EC50 (BK Virus; Virus Dilution 1:100) was 70.8 µM.

With cidofovir diphosphate [CDV-PP] the “t1/2 for CDV-PP” value (human PBMCs; PBMCs incubated 48 hours with CMX001 or cidofovir (FIG. 40)) was 156 h, the “t1/2 for CDV-PP” value (human PBMCs; incubation with CMX001 for 1 hour (FIG. 42)) was 156 h and the “t1/2 for CDV-PP” value (human PBMCs; incubation with CMX001 for 48 hours (FIG. 41)) was 93.6 h.
